From BindingDB's records for doi:10.1021/jm00166a009 (Ohio State University, 1990)

Target: Alpha-2 adrenergic receptor (Homo sapiens)
Assay: Stimulatory activity against serotonin secretion (SEC).

Row | SMILES | IC50
1 | Oc1cc(CC2=NCCN2)cc(F)c1O | 18.2 µM
2 | Oc1ccc(CC2=NCCN2)c(F)c1O | 15.5 µM
3 | Oc1ccc(C(O)c2ncc[nH]2)cc1O (stereo not drawn) | 437 µM
